Test results: US20250034216A1, “STEREOSELECTIVE COVALENT LIGANDS FOR ONCOGENIC AND IMMUNOLOGICAL PROTEINS” (The Scripps Research Institute, priority 2021, published 2025)

Assays:
Test in all cases: IA-DTB cysteine engagement
Type in all cases: binding
SLC25A20_C283 = target: T1, SLC25A20_C283 (Homo sapiens, UniProt O43772); conditions: 22Rv1 cells, relative to DMSO; for % engagement SLC25A20_283: 5 μM probe, 1 h (FIG. 5B); for % engagement SLC25A20_C283: 20 μM probe, 1 h
T1 construct: endogenous in cells; host or cells: 22Rv1
T1 sequence (O43772 1-301): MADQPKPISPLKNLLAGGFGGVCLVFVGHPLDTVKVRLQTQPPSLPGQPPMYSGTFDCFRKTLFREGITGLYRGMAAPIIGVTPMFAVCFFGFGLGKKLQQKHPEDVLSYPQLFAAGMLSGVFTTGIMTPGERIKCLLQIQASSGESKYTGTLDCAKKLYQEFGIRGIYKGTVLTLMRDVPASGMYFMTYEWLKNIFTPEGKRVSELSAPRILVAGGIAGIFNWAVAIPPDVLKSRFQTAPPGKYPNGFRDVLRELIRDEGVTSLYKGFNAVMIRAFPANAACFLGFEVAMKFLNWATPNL
Procedure: (§1) Sample preparation: Cells (adherent: 15 cm dishes, suspension: 2 million cells/mL) were treated with electrophilic probes in situ for indicated times and concentrations, washed with ice-cold PBS, and flash frozen in liquid nitrogen. Cell pellets were lysed by sonication (8 pulses, 40% power) in 500 μL ice-cold PBS supplemented with cOmplete protease inhibitors (1 tablet/10 mL of PBS). Whole cell lysates protein content was measured using a standard DC protein assay (Bio-Rad) and 500 μL (2 mg/mL protein content) were treated with 5 μL of 10 mM 1A-DTB (in DMSO) for 1 h at ambient temperature with occasional vortexing. Samples were methanol-chloroform precipitated with the addition of 500 μL ice-cold MeOH and 200 μL CHCl3, vortexed, and centrifuged (10 min, 10,000 g). Without disrupting the protein disk, both top and bottom layers were aspirated and the protein disk was washed with 1 mL ice-cold MeOH and centrifuged (10 min, 10,000 g). The pellets were allowed to air dry, and then re-suspended in 90 μL buffer (9 M urea, 10 mM DTT, 50 mM TEAB pH 8.5). Samples were reduced by heating at 65 C for 20 minutes and water bath sonicated as needed to resuspend the protein pellets, followed by alkylation via addition of 10 μL (500 mM) iodoacetamide and incubated at 37 C for 30 min with shaking. Samples were briefly centrifuged, and probe sonicated once more to ensure complete resuspension, and then diluted with 300 μL buffer (50 mM TEAB pH 8.5) to reach final concentration of 2 M urea. Trypsin (4 μL of 0.25 μg/μL in trypsin resuspension buffer with 25 mM CaCl2)) was added to each sample and digested at 37 C for 2 h to overnight. Digested samples were then diluted with 300 μL wash buffer (50 mM TEAB pH 8.5, 150 mM NaCl, 0.2% NP-40) containing streptavidin-agarose beads (50 μL of 50% slurry in wash buffer) and were rotated at room temperature for 2 hours. Enriched samples were pelleted by centrifugation (2000 g, 2 min) and transferred to BioSpin columns and washed (3×1 mL wash buffer, 3×1 mL PBS, 3×1 mL water). Enriched peptides were eluted by 300 μL 50% acetonitrile with 0.1% formic acid and eluate was evaporated to dryness via speedvac. IA-DTB labeled and enriched peptides were resuspended in 100 μL EPPS buffer (200 mM, pH 8.0) with 30% acetonitrile, vortexed, and water bath sonicated. Samples were TMT labeled with 3 μL of corresponding TMT tag (5 mg tag resuspended in 256 μL acetonitrile), vortexed, and incubated at room temperature for 1 hour. TMT labeling was quenched with the addition of hydroxylamine (5 μL 5% solution in H2O) and incubated for 15 minutes at room temperature. Samples were then acidified with 5 μL formic acid, combined and dried using a SpeedVac. Samples were desalted via Sep-Pak and then high pH fractionated.
(§2) Data processing: Cysteine engagement ratios (probe vs DMSO) were calculated for each peptide-spectra match by dividing each TMT reporter ion intensity by the average intensity for the channels corresponding to DMSO treatment. Peptide-spectra matches were then grouped based on protein ID and residue number (e.g., PSME1 C22), excluding peptides with summed reporter ion intensities for the DMSO channels <10,000, coefficient of variation for DMSO channels >0.5, and non-tryptic peptide sequences. TMT reporter ion intensities were normalized to the median summed signal intensity across channels.
(§3) Filtering of cysteine data: Replicates were combined based on cell line and treatment condition (probe, concentration, duration) by averaging cysteine engagement ratios across all experiments.

RAB39B_C23 = target: T2, RAB39B_C23 (Homo sapiens, UniProt Q96DA2); conditions: 22Rv1 cells, 20 μM probe, 1 h, relative to DMSO
T2 construct: endogenous in cells; host or cells: 22Rv1
T2 sequence (Q96DA2 1-213): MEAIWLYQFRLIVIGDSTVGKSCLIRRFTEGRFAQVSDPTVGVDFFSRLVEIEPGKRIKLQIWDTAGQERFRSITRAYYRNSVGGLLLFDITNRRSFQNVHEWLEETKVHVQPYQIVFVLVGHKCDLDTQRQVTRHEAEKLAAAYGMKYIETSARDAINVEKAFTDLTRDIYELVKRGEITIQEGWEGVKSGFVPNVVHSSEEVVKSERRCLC
Procedure: as §1, §2, §3

WDR45B_C63 = target: T3, WDR45B_C63 (Homo sapiens, UniProt Q5MNZ6); conditions: 22Rv1 cells, 20 μM probe, 1 h, relative to DMSO
T3 construct: endogenous in cells; host or cells: 22Rv1
Procedure: as §1, §2, §3

GNPAT_C122 = target: T4, GNPAT_C122 (Homo sapiens, UniProt O15228); conditions: 22Rv1 cells, 20 μM probe, 1 h, relative to DMSO
T4 construct: endogenous in cells; host or cells: 22Rv1
T4 sequence (O15228 1-680): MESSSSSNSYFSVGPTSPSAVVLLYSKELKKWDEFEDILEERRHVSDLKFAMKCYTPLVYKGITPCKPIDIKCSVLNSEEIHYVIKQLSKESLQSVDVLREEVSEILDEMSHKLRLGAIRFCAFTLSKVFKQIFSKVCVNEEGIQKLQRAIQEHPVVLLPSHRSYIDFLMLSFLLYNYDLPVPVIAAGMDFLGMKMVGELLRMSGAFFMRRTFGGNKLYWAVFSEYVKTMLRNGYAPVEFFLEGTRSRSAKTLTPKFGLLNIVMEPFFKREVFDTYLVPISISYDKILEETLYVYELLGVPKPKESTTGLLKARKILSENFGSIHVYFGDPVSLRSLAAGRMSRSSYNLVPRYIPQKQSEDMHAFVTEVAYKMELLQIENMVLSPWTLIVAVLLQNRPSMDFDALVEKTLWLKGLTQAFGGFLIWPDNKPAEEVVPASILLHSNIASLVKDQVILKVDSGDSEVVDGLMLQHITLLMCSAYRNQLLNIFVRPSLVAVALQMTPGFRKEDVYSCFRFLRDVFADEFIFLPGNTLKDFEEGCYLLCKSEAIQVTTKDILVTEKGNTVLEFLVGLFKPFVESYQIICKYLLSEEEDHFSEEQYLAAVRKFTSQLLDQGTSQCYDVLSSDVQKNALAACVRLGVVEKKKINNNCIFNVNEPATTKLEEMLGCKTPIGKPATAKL
Procedure: as §1, §2, §3

TRPM4_C758 = target: T5, TRPM4_C758 (Homo sapiens, UniProt Q8TD43); conditions: 22Rv1 cells, 20 μM probe, 1 h, relative to DMSO
T5 construct: endogenous in cells; host or cells: 22Rv1
Procedure: as §1, §2, §3

T3 sequence (Q5MNZ6 whole entry): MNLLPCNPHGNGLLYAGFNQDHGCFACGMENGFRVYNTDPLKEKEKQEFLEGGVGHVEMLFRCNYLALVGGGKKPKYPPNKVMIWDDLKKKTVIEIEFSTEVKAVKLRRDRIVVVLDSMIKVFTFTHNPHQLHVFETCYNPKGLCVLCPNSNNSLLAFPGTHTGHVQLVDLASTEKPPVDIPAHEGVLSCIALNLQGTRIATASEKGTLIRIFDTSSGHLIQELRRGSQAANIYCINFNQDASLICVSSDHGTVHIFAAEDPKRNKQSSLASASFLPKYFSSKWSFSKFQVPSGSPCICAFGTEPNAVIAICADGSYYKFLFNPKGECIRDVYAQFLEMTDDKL
T5 sequence (Q8TD43 whole entry): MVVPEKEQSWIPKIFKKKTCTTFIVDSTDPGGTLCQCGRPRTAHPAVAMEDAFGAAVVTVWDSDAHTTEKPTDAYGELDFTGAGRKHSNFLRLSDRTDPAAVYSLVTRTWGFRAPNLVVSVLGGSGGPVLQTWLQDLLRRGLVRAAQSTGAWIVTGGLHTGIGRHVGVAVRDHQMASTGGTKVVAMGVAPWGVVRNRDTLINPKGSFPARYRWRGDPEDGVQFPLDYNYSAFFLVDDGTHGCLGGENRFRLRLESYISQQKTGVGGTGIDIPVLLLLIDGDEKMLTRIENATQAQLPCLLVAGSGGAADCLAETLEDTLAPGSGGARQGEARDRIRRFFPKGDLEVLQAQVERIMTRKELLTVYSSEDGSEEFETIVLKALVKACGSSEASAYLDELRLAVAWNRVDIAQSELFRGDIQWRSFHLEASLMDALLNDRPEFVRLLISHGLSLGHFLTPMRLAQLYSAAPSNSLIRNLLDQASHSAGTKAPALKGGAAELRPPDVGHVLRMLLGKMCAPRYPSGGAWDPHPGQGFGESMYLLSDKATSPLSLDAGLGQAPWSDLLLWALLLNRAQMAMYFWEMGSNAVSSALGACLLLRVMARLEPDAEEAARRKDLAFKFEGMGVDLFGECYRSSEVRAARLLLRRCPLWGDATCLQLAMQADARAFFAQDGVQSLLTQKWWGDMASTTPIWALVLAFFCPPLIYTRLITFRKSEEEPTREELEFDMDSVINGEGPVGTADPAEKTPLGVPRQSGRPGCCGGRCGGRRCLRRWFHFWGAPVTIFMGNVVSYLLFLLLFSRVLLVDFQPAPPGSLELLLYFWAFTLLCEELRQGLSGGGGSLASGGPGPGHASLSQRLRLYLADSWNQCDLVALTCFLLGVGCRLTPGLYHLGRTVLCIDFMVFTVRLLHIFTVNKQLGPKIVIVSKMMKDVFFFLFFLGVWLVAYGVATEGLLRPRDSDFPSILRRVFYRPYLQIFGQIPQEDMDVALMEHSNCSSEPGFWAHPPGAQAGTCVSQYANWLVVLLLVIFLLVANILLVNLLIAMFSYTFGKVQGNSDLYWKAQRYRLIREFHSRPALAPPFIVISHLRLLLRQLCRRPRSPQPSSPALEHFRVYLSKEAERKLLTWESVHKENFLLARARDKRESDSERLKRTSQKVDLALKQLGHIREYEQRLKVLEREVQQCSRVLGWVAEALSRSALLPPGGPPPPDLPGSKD

Compound	% engagement SLC25A20_283 (SLC25A20_C283) [%]	% engagement RAB39B_C23 (RAB39B_C23) [%]	% engagement SLC25A20_C283 (SLC25A20_C283) [%]	% engagement WDR45B_C63 (WDR45B_C63) [%]	% engagement GNPAT_C122 (GNPAT_C122) [%]	% engagement TRPM4_C758 (TRPM4_C758) [%]
CC#CC(=O)N1C[C@H](c2ccc(Br)cc2)[C@@H]1C(=O)Nc1cccc2cccnc12 [MY-45B, (2R,3S)-3-(4-bromophenyl)-1-(but-2-ynoyl)-N-(quinolin-8-yl)azetidine-2-carboxamide]	20.50					
C=CC(=O)N1C[C@H](c2ccc(Br)cc2)[C@H]1C(=O)Nc1cccc2cccnc12 [MY-3A, (2S,3S)-1-acryloyl-3-(4-bromophenyl)-N-(quinolin-8-yl)azetidine-2-carboxamide]		−53	66	0	35.5	29.5
C=CC(=O)N1C[C@H](c2ccc(Br)cc2)[C@@H]1C(=O)Nc1cccc2cccnc12 [MY-1B, (2R,3S)-1-acryloyl-3-(4-bromophenyl)-N-(quinolin-8-yl)azetidine-2-carboxamide]	82.75	18.5	92	7.25	74.5	54.5
C=CC(=O)N1C[C@H](c2ccc(Br)cc2)[C@H]1C(=O)Nc1cccc2cccnc12 [MY-3B, (2S,3S)-1-acryloyl-3-(4-bromophenyl)-N-(quinolin-8-yl)azetidine-2-carboxamide]		67	−241	86.75	51.5	73.5
C=CC(=O)N1C[C@@H](c2ccc(Br)cc2)[C@H]1C(=O)Nc1cccc2cccnc12 [MY-1A, (2S,3R)-1-acryloyl-3-(4-bromophenyl)-N-(quinolin-8-yl)azetidine-2-carboxamide]		24.5	37	52.25	70.5	40.5
